{"source": "patent US20240376091A1", "about": "“THIADIAZOLEAMIDE DERIVATIVES AND THEIR APPLICATIONS” (ZHEJIANG UNIVERSITY, priority 2021, published 2024)", "key": {"[1]": {"target": "T1, AR-LBD dimer (Homo sapiens, UniProt P10275)", "T1 sequence (P10275 669-900 limits assumed)": "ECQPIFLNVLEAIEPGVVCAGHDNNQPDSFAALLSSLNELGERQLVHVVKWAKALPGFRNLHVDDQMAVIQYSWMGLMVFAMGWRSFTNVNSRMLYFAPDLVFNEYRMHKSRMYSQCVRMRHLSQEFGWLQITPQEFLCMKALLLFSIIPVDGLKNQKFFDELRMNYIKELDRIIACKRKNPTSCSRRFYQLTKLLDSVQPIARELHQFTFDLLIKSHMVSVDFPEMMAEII", "test": "Small-angle X-ray scattering (SAXS) of AR-LBD dimerization", "settings": "AR-LBD 35 μM, DHT 10 μM, Enzalutamide 105 μM, A-1 105 μM", "excerpt": "Detection principles: SAXS is a vital technique for detecting conformational changes of biomacromolecule by quantitatively evalucate the overall dimension and shape silhouette of biomacromolecule.\nThe SAXS scattering signal were collected for 20 frames (1 second exposure time) using the BL19U2 beamline. The ATSAS software were applied to analysis the results."}, "[2]": {"target": "T2, FL-AR^WT (Homo sapiens, UniProt P10275)", "T2 construct": "toward full-length (FL)-AR^WT and FL-AR^V684A; expressed in transfected cells; host or cells: PC3", "T2 sequence (P10275 1-920)": "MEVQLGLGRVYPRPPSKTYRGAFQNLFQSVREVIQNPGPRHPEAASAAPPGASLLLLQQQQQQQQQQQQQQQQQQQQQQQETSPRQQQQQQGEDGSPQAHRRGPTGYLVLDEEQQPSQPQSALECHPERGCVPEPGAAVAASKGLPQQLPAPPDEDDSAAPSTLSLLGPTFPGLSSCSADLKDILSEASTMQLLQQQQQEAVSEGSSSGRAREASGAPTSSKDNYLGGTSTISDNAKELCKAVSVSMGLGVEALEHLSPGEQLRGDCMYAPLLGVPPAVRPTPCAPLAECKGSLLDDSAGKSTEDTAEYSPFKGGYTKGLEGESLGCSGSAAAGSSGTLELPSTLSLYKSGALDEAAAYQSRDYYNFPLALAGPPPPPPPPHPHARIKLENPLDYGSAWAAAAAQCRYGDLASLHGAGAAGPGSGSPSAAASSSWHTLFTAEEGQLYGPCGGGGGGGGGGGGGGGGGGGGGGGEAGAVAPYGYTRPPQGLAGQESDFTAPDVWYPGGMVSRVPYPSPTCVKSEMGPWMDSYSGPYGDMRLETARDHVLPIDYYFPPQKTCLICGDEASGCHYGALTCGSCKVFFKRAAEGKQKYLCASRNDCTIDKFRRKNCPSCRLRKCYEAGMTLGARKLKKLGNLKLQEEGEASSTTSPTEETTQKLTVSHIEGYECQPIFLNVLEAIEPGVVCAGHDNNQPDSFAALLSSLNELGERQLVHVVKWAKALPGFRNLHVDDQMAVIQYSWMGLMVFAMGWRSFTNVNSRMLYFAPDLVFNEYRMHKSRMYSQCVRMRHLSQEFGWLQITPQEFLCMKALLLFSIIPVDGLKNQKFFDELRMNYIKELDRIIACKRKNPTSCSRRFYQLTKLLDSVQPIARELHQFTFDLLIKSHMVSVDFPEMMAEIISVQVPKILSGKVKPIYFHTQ", "test": "Luciferase reporter assay in PC3 cells, wild type AR", "format": "cell-based", "settings": "read-out: IC50 toward FL-AR^WT", "procedure": "Detection principles: A reporter system for detecting the activities of firefly luciferase. To quantitatively detect the interaction between transcription factors and target promoters, the fluorescent intensities are detected to quantitatively evaluate the activities of firefly luciferase.\nMethods: PC3 cells (no endogenous AR) treated with DMEM media supplemented with 5% CSS for 48 hours. Then, the PC3 cells (1.2×10^4/well) were seeded into 96-well plates. After 16 hours, the PC3 cells were transfected with 20 ng/well plasmid and incubated for 20 min at room temperature. After 1 day incubation, the media in the wells was replaced, followed by the addition of various concentrations of compounds. After 48 hours, the culture medium was discarded and the cells were washed with 100 μL PBS, followed by addition of 30 μL 1×PLB and the 96-well plates was shaken on a shaker for 20 min to ensure complete lysis of the cells. Then, the cell lysis supernatant (20 μL/well) was transferred to a white opaque 96-well, and addition of 30 μL Luciferase Assay Reagent II to each well. Then, the fluorescent intensities of firefly luciferase were evaluated. Afterwards, 30 μL Stop&Glo Reagant was added to the wells, and the fluorescent intensities of […] evaluated."}, "[3]": {"target": "T3, LBP of AR-LBD (Rattus norvegicus, UniProt P15207)", "T3 construct": "a buffer containing AR-LBD (His-GST) and fluorescence ligand; purchased", "T3 sequence (P15207 651-882 limits assumed)": "T1 sequence (P10275 669-900 limits assumed)", "test": "AR competitive ligand binding assay (PolarScreen Androgen Receptor Competitor Assay Kit, fluorescence polarization)", "settings": "A-1 at 12.5 μM-200 μM; 4 hours incubation", "procedure": "Detection principles: The binding affinities of compounds to the LBP of AR-LBD were evaluated using PolarScreen™ Androgen Receptor Competitor Assay Kit. […] The addition of a test compound to a microporous plate containing the binary complex would reduce fluorescence polarization values if the compound could target LBP of AR-LBD by competing the fluorescence ligand.\nAfter 4 hours incubation in darkness at room temperature, the fluorescence polarization values were determined using a multifunctional microplate reader."}, "[4]": {"test_system": "LNCaP xenograft", "test": "LNCaP xenograft model in vivo", "settings": "intratumor injection 2.5 mg/kg/week", "experimental": "Methods: LNCaP cells were injected to the Male CB17 SCID mice (6-8 weeks old). Once tumor size reached target value, the mice were randomized into three groups with 6-8 mice per group. […] The mice weight and tumor volume were periodically recorded. Finally, the tumors were harvested."}, "[5]": {"target": "T4, AR-LBD protein (Homo sapiens, UniProt P10275)", "T4 construct": "The biotinylated AR-LBD protein was dissolved in the buffer", "T4 sequence (P10275 669-900 limits assumed)": "T1 sequence (P10275 669-900 limits assumed)", "test": "Biolayer interferometry (BLI) direct interaction", "format": "binding", "settings": "A-1 2.06-500 μM, biotinylated AR-LBD", "procedure": "Detection principles: The BLI technique can detect the interactions by monitoring the change of the interference spectrum in the sensor surface. BLI can quantitatively determine the binding and dissociation processes of a ligand to the target loaded sensor, by analyzing changes in the interference spectrum. Therefore, the direct interaction between ligand and target protein can be quantitatively detected.\nMethods: The biotinylated AR-LBD protein was dissolved in the buffer of phosphate-buffered saline with 1% dimethyl sulfoxide. 200 μL of AR-LBD protein in the buffer was loaded onto sensors and equilibrated for 300 seconds. The kinetics of association between AR-LBD and A-1 were determined by soaking the AR-LBD loaded sensors into wells containing different concentrations of A-1 for 300 seconds, followed by soaking the sensors in the buffer for 180 seconds allow for dissociation. Finally, the ForteBio data analysis software was applied to calculate the kinetic binding constants (Ka, Kd, KD)."}}}
{"smiles": "CC(=O)Cc1nsc(NC(=O)c2cc(-c3cccc(C(F)(F)F)c3)oc2C)n1", "note": "[Compound A-1, 2-Methyl-N-(3-(2-oxopropyl)-1,2,4-thiadiazol-5-yl)-5-(3-(trifluoromethyl)phenyl)furan-3-carboxamide]", "values": [{"measurement": "AR-LBD dimerization", "setting": "[1]", "value": "inhibits AR-LBD dimerization"}, {"measurement": "IC50", "setting": "[2]", "value": 1.84, "unit": "µM"}, {"measurement": "binding to the AR LBP", "setting": "[3]", "value": "did not bind to the AR LBP"}, {"measurement": "body weight", "setting": "[4]", "value": "no significant loss of body weight"}, {"measurement": "tumor growth inhibition, tumor volume", "setting": "[4]", "value": "much superior to that for Enzalutamide"}, {"measurement": "tumor growth inhibition, tumor weight", "setting": "[4]", "value": "much superior to that for Enzalutamide"}, {"measurement": "Kd", "setting": "[5]", "value": 143, "unit": "µM"}]}
